Experimental data from a melting point compilation (Tetko et al.; mined from patent text by program, amines drawn as free bases though some values may be those of a salt).

| SMILES | melting point |
| --- | --- |
| O=C(CCCc1cccs1)N[C@H](Cc1ccc(C(F)(F)F)cc1)[C@@H](O)c1cccc2ccccc12 (racemic) | 139 to 140 °C |
| O=S1(=O)c2cccc3cccc(c23)N1CCN1CCN(c2ccc(O)cc2)CC1 | 235 °C |
| Oc1cccc(/C=C/c2nc(-c3ccccc3)cs2)c1 | 150 to 151 °C |
| COP(=O)(OC)C(O)=Cc1ccc(Cl)cc1 | 89 to 92 °C |
| CCOCc1nc2c(c(C)c(C)n3nnnc23)n1CCNC(=O)Nc1ccccc1 | > 250 °C |
| O=C(Nc1nc(-c2ccccc2)nc2[nH]ccc12)[C@@H]1CCCN1 | 236 to 238 °C |
| O=C(O)C1(C(=O)Nc2cc(Cl)cc(Cl)c2)CCC1 | 159 to 160 °C |
| CCCc1[nH]c2cc(C(=O)O)ccc2c1C(=O)COC | > 250 °C |
| CN(CC(=O)O)C(=O)CCc1cccc(-c2nc(=O)c3ccccc3s2)n1 | 194 to 195 °C |
| O=C1COC(=O)c2ccccc2N1 | 200 to 201 °C |
| C=CCOCCOC(=O)c1cc(-n2c(OC)nc(C(F)(F)F)cc2=O)c(F)cc1Cl | 74 to 77 °C |
| Cc1cn2cccc(OCc3c(Cl)ccc(S(=O)(=O)N4CCC[C@H]4C(=O)NCCCNC(=O)c4ccc(C#N)cc4)c3Cl)c2n1 | 100 to 102 °C |
| CN(C)c1ncc(CN2C(=O)C3(COc4cc5c(cc43)OCO5)c3ccccc32)s1 (configuration not stated) | 200 to 202 °C |
| O=C(Oc1ccccc1)N1CCC2(CC1)SC(c1ccccc1)c1ccc(F)cc12 (configuration not stated) | 156 to 158 °C |
| Cc1c(-c2ccc3c(c2)OCO3)n(Cc2ccc(OCCN3CCCCC3)cc2)c2ccc(O)cc12 | 122 to 125 °C |
| O=C1OC(COc2ccccc2)CN1CCOC1CCCCO1 (configuration not stated) | 78 to 80 °C |
| CC(=O)OC[C@@H](C)[C@H]1CC[C@H]2[C@@H]3C=CC4=CC(=O)C=C[C@]4(C)[C@H]3CC[C@]12C | 90 to 93 °C |
| O=C(COc1ccccc1Cl)NCCO[N+](=O)[O-] | 57 to 58 °C |
| COc1nc(C)cnc1N(C(=O)OCC(C)C)S(=O)(=O)c1cccnc1-c1ccc(I)cc1 | 156 to 158 °C |
| O=CN1CCN(c2c(F)c(F)c3c(=O)c(C(=O)O)cn(C4CC4)c3c2F)CC1 | 290 to 297 °C |
| Cc1[nH]n(C2CCCO2)c2nc(-c3ccncc3)nc(=O)c1-2 (configuration not stated) | 268 to 269 °C |
| CCCCCCCCCCCCC#CCC(COC(C)=O)(COC(C)=O)NC(C)=O | 95.5 to 96.5 °C |
| COc1nc(N)nc2c1ncn2COC(CO)CO | 162 to 163 °C |
| CCN(CC)CCNC(=S)NC(=O)c1ccccc1 | 54 to 56 °C |
| CC(C)C(=O)CC(=O)c1ccc(C(=O)CC(=O)C(C)C)cc1 | 97 to 97.5 °C |
| N#CNC(=O)C=NNc1ccc(F)cc1 | 265 to 267 °C |

| SMILES | melting point |
| --- | --- |
| COc1cccc2c1C(c1ccccc1Cl)NC(=O)C2 (configuration not stated) | 230 to 233 °C |
| CCc1[nH]n(C2CCCC2)c2nc(-c3ccccc3OCC(=O)O)nc(=O)c1-2 | 208 to 209 °C |
| COC(=O)c1ccc(C#Cc2ccc(O)c(C34CC5CC(CC(C5)C3)C4)c2)s1 | 207 to 208 °C |
| COCC#Cc1ccc(CNC(=O)[C@@H](COC)NC(C)=O)cc1 | 141 to 142 °C |
| CN(c1cc2c3c(c1)CCCC3(C)CCC2)c1ncc(C(=O)O)cn1 | > 300 °C |
| CC1=CC2(C=CC1(C)C(Cl)(Cl)Cl)SCC(C(C)(C)C)CS2 (configuration not stated) | 141 to 143 °C |
| N#CCCn1ccc(NC(N)=NCC(F)(F)F)n1 | 141 to 142 °C |
| O=C(O)C1=Cc2cc(OCc3ccccc3)c(OCc3ccccc3)cc2CC1 | 173 to 176 °C |
| CC(c1oc2ccccc2c(=O)c1-c1ccccc1F)n1cnc2c(N)ncnc21 (configuration not stated) | 247 to 250 °C |
| CC(C)NC(=S)NCc1c(Cl)ccc(C(=O)O)c1Cl | > 220 °C |
| N#Cc1cnc2c(c1)N(Cc1cc(F)ccc1F)CCN2 | 204 to 206 °C |
| CCCCCCCCOC(=O)C(=C1SCCCS1)c1cccc(C(F)(F)F)c1 | 49 °C |
| O[C@H]1c2cc3ccccc3cc2[C@H](O)c2cc3ccccc3cc21 | 235 °C |
| COc1cc2c(=O)n(CC3CCCO3)c3c4cc5c(cc4ncc3c2cc1OC)OCO5 (configuration not stated) | 270 to 273 °C |
| CC(C)CCCC(C)C1CCC2C3CC=C4CC(OC(=O)C(C)O)CCC4(C)C3CCC12C (configuration not stated) | 120 to 122 °C |
| Cc1ccc(O)c(C)c1C=O | 159 to 165 °C |
| CCOC(=O)CCC(=O)Nc1ccc(-c2c[nH]c(=O)cn2)cc1 | 250 °C |
| COCOc1ccc(C=CC(=O)C=Cc2ccc(OCOC)c(OC)c2)cc1OC | 81 to 82 °C |
| O=c1c(Cc2cccnc2)cn2c3ccccc3c3cc(OCCCO)cc1c32 | 72.5 to 78.6 °C |
| C=CCn1c(=O)c(C(=O)OCC)c(O)c2cnc(-c3ccccc3)nc21 | 174 to 175 °C |
| CCCn1c(=O)c2[nH]c(/C=C/c3cccs3)nc2n(CCC)c1=O | 270 °C |
| COc1ccc(C=Cc2ccc(OC)c(OC)c2)cc1 | 131 to 134 °C |
| CC(C)(C)NC(=S)Nc1cc(F)cc(F)c1 | 140 to 142 °C |
| O=c1[nH]c2cccnc2n1-c1ccncc1 | 265 to 267 °C |
| Cc1ccc(-c2nc(C)cc(Oc3ccccc3)n2)cc1 | 90 to 91 °C |
| CCc1nc2c(Cl)cc(F)c([N+](=O)[O-])c2s1 | 70 to 73 °C |

| SMILES | melting point |
| --- | --- |
| CC1CN(c2cc3c(cc2F)C(=O)c2nc4ccccc4c(=O)n2-3)CCN1 (configuration not stated) | 225 to 227 °C |
| Cc1cc([N+](=O)[O-])ccc1N1CCOCC1=O | 113 to 114 °C |
| Cc1ccc([C@@H]2C[C@H]3C=C(c4n[nH]c(-c5ccc(F)cc5)c4-c4ccncc4)CCN3C2)cc1 | 222 to 225 °C |
| O=C(O)[C@H]1CC[C@@H](C(=O)N(Cc2ccccc2)OCc2ccccc2)C1 (relative stereo) | 118 to 120 °C |
| COc1cc(C(C)C)ccc1C1(O)C(=O)c2c(NC(C)=O)ccc([N+](=O)[O-])c2C1=O (configuration not stated) | 110 to 115 °C |
| COc1cccc(C(C)NC(=O)CCc2cnoc2-c2ccc(Cl)cc2)c1 (configuration not stated) | 89 to 90 °C |
| NC(=O)c1cccc2c1CC(N(CCCc1c[nH]c3ccc(F)cc13)C1CCC1)CO2 (configuration not stated) | 102 to 105 °C |
| COc1ccc2nc(Cl)nc(N(C)c3ccccc3)c2c1 | 133 to 134 °C |
| CN(c1cccc2cc(-c3ncc(CO)s3)[nH]c12)S(=O)(=O)c1cccs1 | 201 to 202 °C |
| CCOc1cc(OCCCCc2cn(-c3ccc(C(F)(F)F)cn3)nc2OCC)ccc1CCC(=O)O | 101 to 102 °C |
| CCCN(CC)C(=O)c1ccc(CN2C(=O)C(c3ccccc3Cl)(N(C)C)c3cc(Cl)ccc32)cc1 (configuration not stated) | 208 °C |
| Cn1c(C(F)(F)F)cc(=O)n(-c2ccc3snc(C4OCC(O)(CBr)CO4)c3c2)c1=O (configuration not stated) | 105 to 110 °C |
| Cc1cccnc1-n1ccnc1S(=O)Cc1ccccc1N (configuration not stated) | 112 to 114 °C |
| Cc1ccc2c3c(ccc2n1)OCC(CN1CC=C(c2c[nH]c4c(F)cccc24)CC1)O3 (configuration not stated) | 205 to 210 °C |
| COc1ccc(C2=NN(C3CCNCC3)C(=O)C(C)(C)C2)cc1OC | 126 to 128 °C |
| O=C(NNC(=O)c1ccccc1C(F)(F)F)c1ccccc1F | 171 to 173 °C |
| CCn1c(-c2ccc(OC)c(OC)c2)cc(=Nc2c(C)cc(C)cc2C)n(C)c1=O | 57 to 61 °C |
| CN(C)CCc1c(C(=O)O)[nH]c2ccc(C[C@H]3COC(=O)N3)cc12 | 230 °C |
| CN(C)N=Cc1cc(-n2c(=O)cc(C(F)(F)F)n(C)c2=O)ccc1Cl | 170 to 171 °C |
| COc1cc(O)cc(C)c1C=CC(=O)c1ccc(O)cc1 | 197 to 198 °C |
| O=C(NCC1CCc2n[nH]cc2C1)[C@@H]1CCCN1C(=O)[C@@H](CC1CCCCC1)NS(=O)(=O)Cc1ccccc1 (some centres not stated) | 100 to 103 °C |
| Cc1nnc(-c2ccc3occ(-c4cc(C(F)(F)F)ccc4F)c3c2)o1 | 178 to 179 °C |
| CC(C)[C@H](NC(=O)CC[C@H](C)CNC(=O)Cc1ccccc1)[C@@H](O)c1c(-c2ccccc2)c1=O | 152 to 154 °C |
| Cc1ccc(C(F)(F)C(F)(F)c2ccc(Br)cc2)cc1 | 104 to 106 °C |
| COC(=O)c1cc(C(C)=O)ccc1OCCCC(=O)O | 111 to 113 °C |
| Nc1cccc2c1CCNC2 | 153 to 154 °C |

| SMILES | melting point |
| --- | --- |
| COc1ccc(-c2nc(OCC(F)(F)F)nn2-c2ccc(OC)nc2)cc1 | 63 to 64 °C |
| COC(=O)c1nc(N2CCCC2)ccc1Oc1nc(OC)cc(OC)n1 | 151 to 153 °C |
| CCCN(C(=O)Cl)C(=O)CCl | 40 to 44 °C |
| CCCC(O)c1cc2c(cc1C)OCO2 (configuration not stated) | 65.5 to 66.5 °C |
| CCCCCCc1ccc(OCCCCCCCCCCCCCCCC(=O)NCCO)cc1O | 96.4 °C |
| O=C(COc1ccccc1)N[C@H]1C(=O)N[C@H]1CO (relative stereo) | 153 to 154 °C |
| NC(=O)OCCn1nccc1-c1ccc(Oc2ccc(F)cc2)cc1 | 120 to 125 °C |
| Cc1cccc(-n2cnc(OC(C)C(=O)O)n2)c1 (configuration not stated) | 155 to 157 °C |
| CC(C)(Oc1ccc(C#N)cc1)C(O)Cc1cnccn1 (configuration not stated) | 94 to 95 °C |
| CCCCc1nn2cccc(C(=O)OCC)c2c1C(=O)c1ccc(Br)cc1 | < 50 °C |
| O=c1c(Cl)c(-c2ccc(F)cc2)c1=O | 113 to 115 °C |
| Cc1cc(C#N)c(C)c(C(=O)Nc2ccc(F)c(C)n2)n1 | 201 °C |
| C=CCN(CC=C)CC1Oc2c(cc(C)c3[nH]c(=O)ccc23)C1CF (configuration not stated) | 68 to 71 °C |
| COc1cc2c(cc1OCCCBr)oc1cc(-c3ccccc3Cl)c3c(c12)C(=O)N(CCCBr)C3=O | 180 to 182 °C |
| Cc1ccccc1-c1cccc2c1CCn1cc(-c3ccccc3)nc1C2OC1CCN(C)CC1 (configuration not stated) | 94 °C |
| O=C1Nc2ccccc2C1CCCCN1CCN(c2ccccn2)CC1 (configuration not stated) | 131 to 132 °C |
| O=C1N=NC(=O)c2c1[nH]c1c(Cl)cccc21 | > 250 °C |
| CSC1C(=O)Nc2c(Oc3ccccc3N)cccc21 (configuration not stated) | 168 to 170 °C |
| O=c1oc2ccccc2cc1S(=O)(=O)Cc1ccc(Cl)cc1Cl | 228 to 229 °C |
| CCOc1cc(C=O)ccc1OCC(=O)O | 90 to 92.6 °C |
| Cc1cc(C(C)(C)C)cc(C)c1Cl | 39 °C |
| CCCc1nc2nc3cc(Cl)ccc3nc2[nH]1 | 280 to 282 °C |
| N#CN=C(Nc1ccc(C#N)c(Br)c1O)Nc1cccc2c1OCO2 | 164 to 165 °C |
| CC(C)Cc1nn(-c2ccccc2)c(CC(C)C)c1CC(=O)O | 125 to 126 °C |
